Experimental data: patent US7625948B2, “Ester compound and medicinal use thereof” (Japan Tobacco Inc., priority 2002, dated 2009)

Assays:
[1] = target: T1, Microsomal triglyceride transfer protein (MTP) from bovine liver (Bos taurus, UniProt P55156); test: Test Example 1: inhibition of interliposomal triglyceride (TG) transfer activity by MTP (also used for metabolites in Test Example 8); format: biochemical; conditions: MTP-mediated 14C-triolein transfer between liposomes, 37° C., one hour; read-out: Test Example 1 MTP inhibition IC50
T1 construct: from tissue; host or cells: bovine liver
T1 sequence (P55156 12-887): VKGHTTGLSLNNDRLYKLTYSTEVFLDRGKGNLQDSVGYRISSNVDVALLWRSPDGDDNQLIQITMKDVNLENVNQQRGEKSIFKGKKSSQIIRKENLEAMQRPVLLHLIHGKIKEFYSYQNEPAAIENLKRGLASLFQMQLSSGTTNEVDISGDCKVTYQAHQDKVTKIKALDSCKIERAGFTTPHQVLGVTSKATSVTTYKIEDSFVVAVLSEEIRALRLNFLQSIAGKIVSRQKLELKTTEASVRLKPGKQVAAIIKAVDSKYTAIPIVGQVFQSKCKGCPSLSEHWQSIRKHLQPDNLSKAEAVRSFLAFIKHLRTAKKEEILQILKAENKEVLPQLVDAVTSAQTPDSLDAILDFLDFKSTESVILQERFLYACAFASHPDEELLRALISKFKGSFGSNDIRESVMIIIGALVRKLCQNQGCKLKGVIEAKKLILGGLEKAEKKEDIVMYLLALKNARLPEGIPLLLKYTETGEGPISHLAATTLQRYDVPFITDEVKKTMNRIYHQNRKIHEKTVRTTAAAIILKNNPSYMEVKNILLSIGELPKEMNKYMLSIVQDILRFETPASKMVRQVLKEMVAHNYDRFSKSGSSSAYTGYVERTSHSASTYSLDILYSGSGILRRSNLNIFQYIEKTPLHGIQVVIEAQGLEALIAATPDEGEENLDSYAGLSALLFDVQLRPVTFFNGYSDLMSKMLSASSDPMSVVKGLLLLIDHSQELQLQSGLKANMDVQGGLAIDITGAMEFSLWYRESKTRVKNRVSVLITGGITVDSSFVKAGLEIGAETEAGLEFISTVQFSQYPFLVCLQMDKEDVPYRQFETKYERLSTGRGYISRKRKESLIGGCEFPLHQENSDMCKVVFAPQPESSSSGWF
T1 sequence (P05307 21-510 partner): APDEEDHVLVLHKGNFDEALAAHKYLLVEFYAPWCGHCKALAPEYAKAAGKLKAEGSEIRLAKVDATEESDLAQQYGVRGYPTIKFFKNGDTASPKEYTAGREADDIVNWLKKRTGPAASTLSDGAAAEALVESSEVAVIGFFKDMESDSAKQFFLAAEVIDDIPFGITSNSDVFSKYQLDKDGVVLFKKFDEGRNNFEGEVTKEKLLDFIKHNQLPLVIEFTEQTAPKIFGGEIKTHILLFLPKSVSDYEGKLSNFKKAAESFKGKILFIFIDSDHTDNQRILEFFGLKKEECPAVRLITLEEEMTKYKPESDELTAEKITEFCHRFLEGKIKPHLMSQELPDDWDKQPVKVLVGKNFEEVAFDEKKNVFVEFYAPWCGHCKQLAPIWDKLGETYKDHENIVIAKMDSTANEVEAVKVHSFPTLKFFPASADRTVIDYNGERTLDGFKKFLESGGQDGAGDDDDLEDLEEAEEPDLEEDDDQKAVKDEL
Method in brief: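 Partially purified bovine liver MTP (DEAE chromatography) incubated 1 h at 37 °C, pH 7.4, with ^14C-triolein-labelled donor SUVs and unlabelled acceptor SUVs plus compound in DMSO. Acceptor radioactivity, blank-corrected, gave % inhibition versus DMSO; IC50 derived. Metabolites tested likewise.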

Syrian hamsters = test: Test Example 3: olive oil-loading test (inhibition of fat absorption, plasma TG); format: in vivo; conditions: Mesocricetus auratus, po, plasma TG 4 hours after olive oil, read-out: Test Example 3 Inhibition of fat absorption after olive oil-loading in Hamster Inhibition rate (%); for inhibition in vivo at 3 mg/kg: 3 mg/kg p.o.; for inhibition in vivo at 10 mg/kg: 10 mg/kg p.o.
Method: Syrian hamsters (9-11 weeks of age) under non-fasted conditions were used in the test. Blood was collected previously from orbital venous plexus, and a sample was suspended in 0.5% methyl cellulose (vehicle) and the suspension was forced to be administered orally to the hamsters at a dose of 0.3, 1, 3 or 10 mg/2 mL/kg. Only vehicle in the same volume was administered to the control group. Olive oil (2 mL/kg) was forced to be administered orally 30 minutes after the administration of the sample, and blood was collected from orbital venous plexus 4 hours later. Plasma was recovered from the blood, and the amount of triglyceride (TG) in the plasma was determined by automatic analyzer (Hitachi Co.). The data was expressed in terms of ΔTG(mg/dL)=the value at 4th hr minus the value before administration. Inhibition rate (%) was calculated from the data obtained on the basis of the following equation.
Inhibition rate (%)=100×(1 minus ΔTG of sample group/ΔTG of control group).

Row | SMILES | IC50 [1] [nM] | inhibition in vivo at 3 mg/kg (Syrian hamsters) [%] | inhibition in vivo at 10 mg/kg (Syrian hamsters) [%]
1 | CCOC(=O)C(COC(=O)Cc1ccc(NC(=O)c2ccccc2-c2ccc(C(F)(F)F)cc2)c(C(=O)N2CCCC2)c1)(C(=O)OCC)c1ccccc1 [Example 2-22] | 1.4 | 61 | 
2 | CCNC(=O)C(CCOC(=O)Cc1ccc(NC(=O)c2ccccc2-c2ccc(C(F)(F)F)cc2)c(OCC)c1)(C(=O)NCC)c1ccccc1 [Example 3-8] | 3.7 | 60 | 
3 | CCNC(=O)C(COC(=O)Cc1ccc(NC(=O)c2ccccc2-c2ccc(C(F)(F)F)cc2)c(OC(C)C)c1)(C(=O)NCC)c1ccccc1 [Example 3-10] | 2.7 | 85 | 
4 | CCNC(=O)C(COC(=O)Cc1ccc(NC(=O)c2ccccc2-c2ccc(C(F)(F)F)cc2)c(C(=O)NC)c1)(C(=O)NCC)c1ccccc1 [Example 2-3] | 2.1 | 68 | 
5 | CCNC(=O)C(COC(=O)Cc1ccc(NC(=O)c2ccccc2-c2ccc(C(F)(F)F)cc2)c(CC)c1)(C(=O)NCC)c1ccccc1 [Example 1-5, {3-Ethyl-4-[(4′-trifluoromethylbiphenyl-2-carbonyl)amino]phenyl}acetic acid 2,2-bisethylcarbamoyl-2-phenylethyl ester] | 0.66 | 59 | 
6 | CCNC(=O)C(CCOC(=O)Cc1ccc(NC(=O)c2ccccc2-c2ccc(C(F)(F)F)cc2)c(C(=O)N(C)C)c1)(C(=O)NCC)c1ccccc1 [Example 2-4] | 0.94 | 78 | 
7 | COC(=O)C(COC(=O)Cc1ccc(NC(=O)c2ccccc2-c2ccc(C(F)(F)F)cc2)c(C(=O)N(C)C)c1)(C(=O)OC)c1ccccc1 [Example 2-39] | 0.74 | 68 | 
8 | CCNC(=O)C(COC(=O)Cc1ccc(NC(=O)c2ccccc2-c2ccc(C(F)(F)F)cc2)cc1)(C(=O)NCC)c1ccccc1 [Example 1, 4-[(4′-Trifluoromethylbiphenyl-2-carbonyl)amino]phenyl-acetic acid 2,2-bisethylcarbamoyl-2-phenylethyl ester] | 0.6 |  | 
9 | CCNC(=O)C(COC(=O)Cc1ccc(NC(=O)c2ccccc2-c2ccc(C(F)(F)F)cc2)c(OC)c1)(C(=O)NCC)c1ccccc1 [Example 3-3] | 0.4 |  | 78
10 | CCNC(=O)C(COC(=O)Cc1ccc(NC(=O)c2ccccc2-c2ccc(C(F)(F)F)cc2)c(C(=O)N(C)C)c1)(C(=O)NCC)c1ccccc1 [Example 2, {3-Dimethylcarbamoyl-4-[(4′-trifluoromethylbiphenyl-2-carbonyl)amino]phenyl}acetic acid 2,2-bisethylcarbamoyl-2-phenylethyl ester] | 0.62 |  | 95
11 | CCCNC(=O)C(COC(=O)Cc1ccc(NC(=O)c2ccccc2-c2ccc(C(F)(F)F)cc2)cc1)(C(=O)NCCC)c1ccccc1 [Example 1-35] | 1 |  | 
12 | O=C(Cc1ccc(NC(=O)c2ccccc2-c2ccc(C(F)(F)F)cc2)cc1)OCC(C(=O)NCC(F)(F)F)(C(=O)NCC(F)(F)F)c1ccccc1 [Example 1-12] | 7.6 |  | 
13 | CCNC(=O)C(CCOC(=O)Cc1ccc(NC(=O)c2ccccc2-c2ccc(C(F)(F)F)cc2)c(OC)c1)(C(=O)NCC)c1ccccc1 [Example 3-6] | 5 | 52 | 
14 | CCNC(=O)C(CCCOC(=O)Cc1ccc(NC(=O)c2ccccc2-c2ccc(C(F)(F)F)cc2)c(C(=O)N(C)C)c1)(C(=O)NCC)c1ccccc1 [Example 2-7] | 1.1 | 58 | 
15 | CCOC(=O)C(COC(=O)Cc1ccc(OC(=O)c2ccccc2-c2ccc(C(F)(F)F)cc2)cc1)(C(=O)OCC)c1ccccc1 [Example 1-2, 2-Phenyl-2-{2-[4-(4′-trifluoromethylbiphenyl-2-carbonyloxy)phenyl]acetoxymethyl}malonic acid diethyl ester] | 42 |  | 
16 | CCOC(=O)C(COC(=O)Cc1ccc(NC(=O)c2ccccc2-c2ccc(C(F)(F)F)cc2)c(C(=O)N(C)C)c1)(C(=O)OCC)c1ccccc1 [Example 2-5] | 1.4 | 70 | 
17 | O=C(Cc1ccc(NC(=O)c2ccccc2-c2ccc(C(F)(F)F)cc2)cc1)OCC1(C(=O)NCC(F)(F)F)c2ccccc2-c2ccccc21 [Example 1-6] | 1.2 |  | 54
18 | COC(=O)C(COC(=O)Cc1ccc(NC(=O)c2ccccc2-c2ccc(C(F)(F)F)cc2)cc1)(C(=O)OC)c1ccccc1 [Example 1-13] | 5.8 |  | 
19 | CCCNC(=O)C(COC(=O)Cc1ccc(NC(=O)c2ccccc2-c2ccc(C(F)(F)F)cc2)c(C(=O)N(C)C)c1)(C(=O)NCCC)c1ccccc1 [Example 2-2] | 1.4 |  | 96
